Source: patent US4698327A, “Novel glycopeptide derivatives” (priority 1986, dated 1987)
≈ marks a conversion by molar mass, not a printed value.

Legend:
[1] = tested on: Staphylococcus aureus V41; experiment: MIC, standard agar-dilution assay; assay type: cell-based
[2] = tested on: Staphylococcus aureus X400; experiment: MIC, standard agar-dilution assay; assay type: cell-based
[3] = tested on: Staphylococcus aureus S13E; assay type: cell-based; details: agar dilution
[4] = tested on: Staphylococcus epidermidis EPI1; assay type: cell-based; details: agar dilution
[5] = tested on: Staphylococcus epidermidis 222; experiment: MIC, standard agar-dilution assay; assay type: cell-based
[6] = tested on: Streptococcus pyogenes C203; experiment: MIC, standard agar-dilution assay; assay type: cell-based
[7] = tested on: Streptococcus pneumoniae Park 1; assay type: cell-based; details: agar dilution
[8] = tested on: Streptococcus faecium ATCC 9790; experiment: MIC, standard agar-dilution assay; assay type: cell-based
[9] = tested on: Streptococcus sp. group D 2041; experiment: MIC, standard agar-dilution assay; assay type: cell-based
[10] = tested on: Haemophilus influenzae C.L.; experiment: MIC, standard agar-dilution assay; assay type: cell-based
[11] = tested on: Haemophilus influenzae 76; experiment: MIC, standard agar-dilution assay; assay type: cell-based
Escherichia coli N10 = experiment: MIC, standard agar-dilution assay; assay type: cell-based
Escherichia coli EC14 = experiment: MIC, standard agar-dilution assay; assay type: cell-based
Escherichia coli TEM = experiment: MIC, standard agar-dilution assay; assay type: cell-based
[12] = tested on: Klebsiella pneumoniae X26; experiment: MIC, standard agar-dilution assay; assay type: cell-based
[13] = tested on: Klebsiella pneumoniae X68; experiment: MIC, standard agar-dilution assay; assay type: cell-based
[14] = tested on: Klebsiella pneumoniae KAE; experiment: MIC, standard agar-dilution assay; assay type: cell-based
[15] = tested on: Staphylococcus aureus NRRL B313; details: agar dilution

SMILES | MIC [1] | MIC [2] | MIC [3] | MIC [4] | MIC [5] | MIC [6] | MIC [7] | MIC [8] | MIC [9] | MIC [10] | MIC [11] | MIC (Escherichia coli N10) | MIC (Escherichia coli EC14) | MIC (Escherichia coli TEM) | MIC [12] | MIC [13] | MIC [14] | MIC [15]
CCCNC1(C)CC(OC2C(Oc3c4cc5cc3Oc3ccc(cc3Cl)C(O)C3NC(=O)C(NC(=O)C5NC(=O)C(CC(N)=O)NC(=O)C(NC(=O)C(CC(C)C)NC)C(O)c5ccc(c(Cl)c5)O4)c4ccc(O)c(c4)-c4c(O)cc(O)cc4C(C(=O)O)NC3=O)OC(CO)C(O)C2O)OC(C)C1O (stereo not drawn) [Compound 20, N^van --(n-propyl)vancomycin] | 1 µg/mL (≈ 0.671 µM) | 1 µg/mL (≈ 0.671 µM) | 1 µg/mL (≈ 0.671 µM) | 4 µg/mL (≈ 2.68 µM) | 1 µg/mL (≈ 0.671 µM) | 0.5 µg/mL (≈ 0.335 µM) | 0.5 µg/mL (≈ 0.335 µM) | 1 µg/mL (≈ 0.671 µM) | 1 µg/mL (≈ 0.671 µM) | 128 µg/mL (≈ 85.8 µM) | 128 µg/mL (≈ 85.8 µM) | > 128 µg/mL | > 128 µg/mL | > 128 µg/mL | > 128 µg/mL | > 128 µg/mL | > 128 µg/mL | 1 µg/mL (≈ 0.671 µM)
CCCCCCCNC1(C)CC(OC2C(Oc3c4cc5cc3Oc3ccc(cc3Cl)C(O)C3NC(=O)C(NC(=O)C5NC(=O)C(CC(N)=O)NC(=O)C(NC(=O)C(CC(C)C)NC)C(O)c5ccc(c(Cl)c5)O4)c4ccc(O)c(c4)-c4c(O)cc(O)cc4C(C(=O)O)NC3=O)OC(CO)C(O)C2O)OC(C)C1O (stereo not drawn) [Compound 10, N^van --(n-heptyl)vancomycin] | 0.5 µg/mL (≈ 0.323 µM) | 0.5 µg/mL (≈ 0.323 µM) | 0.5 µg/mL (≈ 0.323 µM) | 2 µg/mL (≈ 1.29 µM) | 1 µg/mL (≈ 0.646 µM) | 0.5 µg/mL (≈ 0.323 µM) | 0.125 µg/mL (≈ 0.0808 µM) | 0.5 µg/mL (≈ 0.323 µM) | 1 µg/mL (≈ 0.646 µM) | 128 µg/mL (≈ 82.7 µM) | 128 µg/mL (≈ 82.7 µM) | > 128 µg/mL | > 128 µg/mL | > 128 µg/mL | > 128 µg/mL | > 128 µg/mL | > 128 µg/mL | 0.25 µg/mL (≈ 0.162 µM)
CCCCCCCCCNC1(C)CC(OC2C(Oc3c4cc5cc3Oc3ccc(cc3Cl)C(O)C(NC(=O)C(CC(C)C)N(C)CCCCCCCCC)C(=O)NC(CC(N)=O)C(=O)NC5C(=O)NC3C(=O)NC(C(=O)NC(C(=O)O)c5cc(O)cc(O)c5-c5cc3ccc5O)C(O)c3ccc(c(Cl)c3)O4)OC(CO)C(O)C2O)OC(C)C1O (stereo not drawn) [Compound 6, N^van, N^leu --di(n-nonyl)vancomycin] | 1 µg/mL (≈ 0.588 µM) | 1 µg/mL (≈ 0.588 µM) | 2 µg/mL (≈ 1.18 µM) | 4 µg/mL (≈ 2.35 µM) | 2 µg/mL (≈ 1.18 µM) | 1 µg/mL (≈ 0.588 µM) | 2 µg/mL (≈ 1.18 µM) | 1 µg/mL (≈ 0.588 µM) | 2 µg/mL (≈ 1.18 µM) | > 128 µg/mL | > 128 µg/mL | > 128 µg/mL | > 128 µg/mL | > 128 µg/mL | > 128 µg/mL | > 128 µg/mL | > 128 µg/mL | 1 µg/mL (≈ 0.588 µM)
CCCCCCCCCCNC1(C)CC(OC2C(Oc3c4cc5cc3Oc3ccc(cc3Cl)C(O)C(NC(=O)C(CC(C)C)N(C)CCCCCCCCCC)C(=O)NC(CC(N)=O)C(=O)NC5C(=O)NC3C(=O)NC(C(=O)NC(C(=O)O)c5cc(O)cc(O)c5-c5cc3ccc5O)C(O)c3ccc(c(Cl)c3)O4)OC(CO)C(O)C2O)OC(C)C1O (stereo not drawn) [Compound 4, N^van, N^leu --di(n-decyl)vancomycin] | 4 µg/mL (≈ 2.31 µM) | 4 µg/mL (≈ 2.31 µM) | 4 µg/mL (≈ 2.31 µM) | 16 µg/mL (≈ 9.25 µM) | 4 µg/mL (≈ 2.31 µM) | 2 µg/mL (≈ 1.16 µM) | 4 µg/mL (≈ 2.31 µM) | 4 µg/mL (≈ 2.31 µM) | 4 µg/mL (≈ 2.31 µM) | > 128 µg/mL | > 128 µg/mL | > 128 µg/mL | > 128 µg/mL | > 128 µg/mL | > 128 µg/mL | > 128 µg/mL | > 128 µg/mL | 2 µg/mL (≈ 1.16 µM)
CCCCCCCCCCNC1(C)CC(OC2C(Oc3c4cc5cc3Oc3ccc(cc3Cl)C(O)C(NC(=O)C(CC(C)C)[N+](C)(C)C)C(=O)NC(CC(N)=O)C(=O)NC5C(=O)NC3C(=O)NC(C(=O)NC(C(=O)[O-])c5cc(O)cc(O)c5-c5cc3ccc5O)C(O)c3ccc(c(Cl)c3)O4)OC(CO)C(O)C2O)OC(C)C1O (stereo not drawn) [Compound 124, N^van --(n-decyl)-M43A] | 0.5 µg/mL (≈ 0.309 µM) | 0.5 µg/mL (≈ 0.309 µM) | 0.5 µg/mL (≈ 0.309 µM) | 1 µg/mL (≈ 0.618 µM) | 0.5 µg/mL (≈ 0.309 µM) | 0.25 µg/mL (≈ 0.155 µM) | 0.5 µg/mL (≈ 0.309 µM) | 0.5 µg/mL (≈ 0.309 µM) | 0.5 µg/mL (≈ 0.309 µM) | > 64 µg/mL | > 64 µg/mL | > 64 µg/mL | 64 µg/mL (≈ 39.6 µM) | > 64 µg/mL | > 64 µg/mL | > 64 µg/mL | > 64 µg/mL | 0.5 µg/mL (≈ 0.309 µM)
CCNC1(C)CC(OC2C(Oc3c4cc5cc3Oc3ccc(cc3Cl)C(O)C(NC(=O)C(CC(C)C)N(C)CC)C(=O)NC(CC(N)=O)C(=O)NC5C(=O)NC3C(=O)NC(C(=O)NC(C(=O)O)c5cc(O)cc(O)c5-c5cc3ccc5O)C(O)c3ccc(c(Cl)c3)O4)OC(CO)C(O)C2O)OC(C)C1O (stereo not drawn) [Compound 24, N^van, N^leu --diethylvancomycin] | 1 µg/mL (≈ 0.664 µM) | 2 µg/mL (≈ 1.33 µM) | 1 µg/mL (≈ 0.664 µM) | 2 µg/mL (≈ 1.33 µM) | 2 µg/mL (≈ 1.33 µM) | 1 µg/mL (≈ 0.664 µM) | 1 µg/mL (≈ 0.664 µM) | 2 µg/mL (≈ 1.33 µM) | 4 µg/mL (≈ 2.66 µM) | < 128 µg/mL | 128 µg/mL (≈ 85 µM) | > 128 µg/mL | > 128 µg/mL | > 128 µg/mL | > 128 µg/mL | > 128 µg/mL | > 128 µg/mL | 1 µg/mL (≈ 0.664 µM)
CCCCNC1(C)CC(OC2C(Oc3c4cc5cc3Oc3ccc(cc3Cl)C(O)C3NC(=O)C(NC(=O)C5NC(=O)C(CC(N)=O)NC(=O)C(NC(=O)C(CC(C)C)NC)C(O)c5ccc(c(Cl)c5)O4)c4ccc(O)c(c4)-c4c(O)cc(O)cc4C(C(=O)O)NC3=O)OC(CO)C(O)C2O)OC(C)C1O (stereo not drawn) [Compound 17, N^van --(n-butyl)vancomycin] | 1 µg/mL (≈ 0.664 µM) | 1 µg/mL (≈ 0.664 µM) | 1 µg/mL (≈ 0.664 µM) | 4 µg/mL (≈ 2.66 µM) | 2 µg/mL (≈ 1.33 µM) | 1 µg/mL (≈ 0.664 µM) | 0.5 µg/mL (≈ 0.332 µM) | 2 µg/mL (≈ 1.33 µM) | 4 µg/mL (≈ 2.66 µM) | 128 µg/mL (≈ 85 µM) | 128 µg/mL (≈ 85 µM) | > 128 µg/mL | > 128 µg/mL | > 128 µg/mL | > 128 µg/mL | > 128 µg/mL | > 128 µg/mL | 1 µg/mL (≈ 0.664 µM)
CCCCCCNC1(C)CC(OC2C(Oc3c4cc5cc3Oc3ccc(cc3Cl)C(O)C3NC(=O)C(NC(=O)C5NC(=O)C(CC(N)=O)NC(=O)C(NC(=O)C(CC(C)C)NC)C(O)c5ccc(c(Cl)c5)O4)c4ccc(O)c(c4)-c4c(O)cc(O)cc4C(C(=O)O)NC3=O)OC(CO)C(O)C2O)OC(C)C1O (stereo not drawn) [Compound 13, N^van --(n-hexyl)vancomycin] | 1 µg/mL (≈ 0.652 µM) | 1 µg/mL (≈ 0.652 µM) | 0.5 µg/mL (≈ 0.326 µM) | 2 µg/mL (≈ 1.3 µM) | 1 µg/mL (≈ 0.652 µM) | 0.5 µg/mL (≈ 0.326 µM) | 0.125 µg/mL (≈ 0.0815 µM) | 1 µg/mL (≈ 0.652 µM) | 1 µg/mL (≈ 0.652 µM) | 128 µg/mL (≈ 83.5 µM) | 128 µg/mL (≈ 83.5 µM) | > 128 µg/mL | > 128 µg/mL | > 128 µg/mL | > 128 µg/mL | > 128 µg/mL | > 128 µg/mL | 0.5 µg/mL (≈ 0.326 µM)
CCCCNC1(C)CC(OC2C(Oc3c4cc5cc3Oc3ccc(cc3Cl)C(O)C(NC(=O)C(CC(C)C)N(C)CCCC)C(=O)NC(CC(N)=O)C(=O)NC5C(=O)NC3C(=O)NC(C(=O)NC(C(=O)O)c5cc(O)cc(O)c5-c5cc3ccc5O)C(O)c3ccc(c(Cl)c3)O4)OC(CO)C(O)C2O)OC(C)C1O (stereo not drawn) [Compound 19, N^van, N^leu --di(n-butyl)vancomycin] | 1 µg/mL (≈ 0.64 µM) | 1 µg/mL (≈ 0.64 µM) | 1 µg/mL (≈ 0.64 µM) | 2 µg/mL (≈ 1.28 µM) | 1 µg/mL (≈ 0.64 µM) | 0.5 µg/mL (≈ 0.32 µM) | 0.5 µg/mL (≈ 0.32 µM) | 1 µg/mL (≈ 0.64 µM) | 2 µg/mL (≈ 1.28 µM) | > 128 µg/mL | 128 µg/mL (≈ 82 µM) | > 128 µg/mL | > 128 µg/mL | > 128 µg/mL | > 128 µg/mL | > 128 µg/mL | > 128 µg/mL | 0.5 µg/mL (≈ 0.32 µM)
